US20080194628A1, “Donepezil Salts Suitable for the Preparation of Pharmaceutical Compositions” (priority 2004, published 2008)

Details: comparison with donepezil hydrochloride tablet

## COc1cc2c(cc1OC)C(=O)C(CC1CCN(Cc3ccccc3)CC1)C2.O=S(=O)(O)O (stereo not shown) [Example 12, donepezil sulfate (1:1)]
  Stability of tablets prepared from the salt, compared with the tablet prepared from the hydrochloride salt: practically identical to that of the tablet prepared from the hydrochloride salt
